# Test results as given in US12138320B2, “Composition and methods for tumor imaging and treatment” (The University of Chicago, priority 2020, dated 2024).
# Experiments:
# [1] = target: T1, NCEH1 (Homo sapiens, UniProt Q6PIU2); test: Gel-based competitive ABPP (FP-Rho) of cancer cells treated in situ (live cells); assay type: cell-based; settings: live cells
# T1 construct: serine hydrolase activity in membrane proteome fractions of MDA-MB231 breast cancer cells treated with the indicated concentrations; endogenous in cells; host or cells: PC3 prostate cancer cells; MDA-MB231 breast cancer cells
# T1 sequence (Q6PIU2 1-408): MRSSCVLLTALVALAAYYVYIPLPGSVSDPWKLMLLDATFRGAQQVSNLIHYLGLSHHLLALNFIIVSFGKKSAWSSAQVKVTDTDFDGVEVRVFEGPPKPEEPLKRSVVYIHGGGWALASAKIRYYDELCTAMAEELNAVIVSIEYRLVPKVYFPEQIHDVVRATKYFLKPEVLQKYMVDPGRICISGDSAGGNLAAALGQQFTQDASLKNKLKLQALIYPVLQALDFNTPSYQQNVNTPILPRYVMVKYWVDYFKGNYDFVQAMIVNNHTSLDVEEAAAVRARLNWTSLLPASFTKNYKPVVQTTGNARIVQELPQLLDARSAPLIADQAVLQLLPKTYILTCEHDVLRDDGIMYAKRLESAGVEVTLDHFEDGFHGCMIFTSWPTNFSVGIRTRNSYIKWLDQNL
# Protocol: (§1) Proteome Preparation: Human PC3 and MDA-MB231 cells were grown in Roswell Park Memorial Institute (RPMI) medium and Dulbecco's Modified Eagle Medium (DMEM), respectively, supplemented with 10% fetal bovine serum (FBS) and 2 mM L-glutamine, and cultured in a humidified 5% CO2 incubator at 37° C. Cells were washed twice with phosphate buffered saline (PBS, pH 7.5), collected by scraping, resuspended in 0.2 ml PBS, sonicated, and fractionated via centrifugation (100,000×g, 45 min) into a pellet (containing membrane proteins) and supernatant (containing soluble proteins). For murine proteomes, mouse tissues were Dounce-homogenized on ice in cold PBS, followed by a low-speed spin (1,400×g, 5 min) to remove debris. After sonication, the membrane and soluble proteomes were fractionated as described above. All sample pellets were washed and resuspended in PBS via sonication. Protein concentrations were determined using a Bradford protein assay kit (Bio-Rad, Hercules, California, United States of America)). Samples were stored at −80° C. until use.
# Cellular JW199 Treatments: JW199 was dissolved in dimethyl sulfoxide (DMSO) vehicle, which was diluted into media or buffer before addition to cells or proteomes, respectively. For in vitro proteome experiments, the final DMSO concentration was 4%. For live cell (in situ) treatments, 2×10^6 cells were seeded in 6 cm dishes (100% confluency) 24 hours prior to JW199 treatment in serum-free media. At the end of the experiment, cells were washed and collected, as described above, for gel-based activity profiling.
# Gel-based Activity Profiling: Cell lysates were treated with 1 μM fluorophosphonate-rhodamine (FP-rho) for 30 min at room temperature (50 μL total reaction volume). Reactions were quenched with one volume of standard 4× sodium dodecyl sulfate/polyacrylamide gel electrophoresis (SDS/PAGE) reducing sample buffer, resolved on 10% acrylamide SDS/PAGE gels, and visualized in-gel with a fluorescence scanner sold under the tradename CHEMIDOC™ MP (Bio-Rad, Hercules, California, United States of America). Densitometric quantification of band intensities were used to calculate the percent inhibition via JW199. 50% inhibitory concentration (IC50) values were determined from dose-response curves constructed in GraphPad Prism software from three independent replicates for each inhibitor concentration. For competitive ABPP with JW576, tumor lysates were treated with 1 μM JW576 for 30 min at 37° C. (50 μL total reaction volume). Competitive ABPP was then conducted as described above. NCEH1 activity was calculated by densitometric quantification (ImageJ software; National Institutes of Health (NIH), Bethesda, Maryland, United States of America) of JW576-labeled band intensity (BODIPY fluorescence) from three independent replicates.
# [2] = system: other detected serine hydrolase targets; test: Family-wide gel-based profiling of serine hydrolases in MDA-MB231 and PC3 cells (selectivity); assay type: cell-based, human; settings: live cells
# Protocol: as §1, with “For murine proteomes, mouse tissues were Dounce-homogenized on ice in cold PBS, followed by a low-speed spin (1,400×g, 5 min) to remove debris. After sonication, the membrane and soluble proteomes were fractionated as described above. All sample pellets were washed and resuspended in PBS via sonication.” left out, “Samples were stored at −80° C. until use.” left out
# Gel-based Activity Profiling: Cell lysates were treated with 1 μM fluorophosphonate-rhodamine (FP-rho) for 30 min at room temperature (50 μL total reaction volume). Reactions were quenched with one volume of standard 4× sodium dodecyl sulfate/polyacrylamide gel electrophoresis (SDS/PAGE) reducing sample buffer, resolved on 10% acrylamide SDS/PAGE gels, and visualized in-gel with a fluorescence scanner sold under the tradename CHEMIDOC™ MP (Bio-Rad, Hercules, California, United States of America). Densitometric quantification of band intensities were used to calculate the percent inhibition via JW199. […]
# [3] = system: MDA-MB231 human breast cancer xenografts; test: PET/CT imaging and ex vivo biodistribution in mice bearing MDA-MB231 xenografts; design: species or system mouse
# Protocol: In vivo microPET/CT imaging: All imaging was performed by the Integrated Small Animal Imaging Research Resource (iSAIRR) at the University of Chicago (Chicago, Illinois, United States of America) on a β-Cube and X-Cube (Molecubes NV, Ghent, Belgium). Athymic nude mice (males and females, aged 6 to 8 weeks; HSD strain, Harlan-Envigo, Indianapolis, Indiana, United States of America) were anesthetized via inhalation with 1.5-2% isoflurane and injected with approximately 150 μCi (5.55 Megabecquerel (MBq)) of [^18F]JW199 in 150 μL of physiologic saline through the lateral tail vein, followed by awake incubation for 1 hour and 45 minutes. MicroCT images were acquired using the general purpose protocol, with energy of 50 KeV and a tube current of 100 μA. Respiration rate and body temperature of the animal were constantly monitored during the entire scanning period with the p-Cube and X-Cube onboard monitoring system. […]
# Dynamic reconstruction was performed using a three-dimensional OSEM algorithm with 400 μm isometric voxel size. […] 3D regions of interest (ROIs) were drawn and standardized uptake values (SUVs) and percent injected dose per cubic centimeter of tissue (% ID/cc) were calculated for each ROI and time point. % ID/cc was calculated as a ratio of tissue radioactivity concentration (mCi/g) at time of scan to total injected activity (millicurie (mCi)) at time of scan. […]
structure (smiles),measurement,setting,value
"CC(C)c1ccccc1OC(=O)NCCc1ccc(OCC[18F])cc1 [[^18F]JW199, fluorine-18-labeled 2-isopropylphenyl-(4-(2-fluoroethoxy)phenethyl)carbamate]",concentrations at which active NCEH1 is labeled in live cells,[1],nM concentrations
same,selectivity over other detected serine hydrolase targets,[2],"greater than 1,000 fold"
same,radiotracer accumulation in tumor,"[3]; 150 μCi i.v., dynamic PET/CT",radiotracer accumulation in breast tumor xenograft cells
same,total radioactivity in bulk tumor tissue relative to surrounding muscle,"[3]; ex vivo quantitation, 3 hours after injection, breast cancer model",higher total radioactivity
